Measurements reported in patent US20220009914A1, “Analogs of Nitrofuran Antibiotics to Combat Resistance” (The Trustees of Indiana University, priority 2020, published 2022).
pEC50, pIC50: −log10 of the molar value. Where two headings read alike, the source gives them in different places.

Key:
[1] = system: Enterococcus faecium strain NCTC 7171 (ATCC #19434); assay: bacterial proliferation assay, E. faecium; format: cell-based; conditions: read-out: Bacterial Proliferation EC50 E. faecium
Description: (§1) All compounds were evaluated for inhibiting the proliferation of E. coli and each of the ESKAPE bacteria. Results presented represent the averages of EC50 values obtained from at least four replicates. Evaluating compounds for inhibition of bacterial cell proliferation.
(§2) Growth Media: E. coli were grown with LB medium and all ESKAPE bacteria were grown in Brain Heart Infusion (BHI) medium (Becton, Dickinson and Company), with all liquid cultures supplemented with 25 mg/L Ca^2+ and 12.5 mg/L Mg^2+ to mimic physiological free concentrations of these cations. A 10 mg/mL Ca^2+ stock solution was prepared by dissolving 1.84 g of CaCl2.2H2O in 50 mL of deionized water, and a 10 mg/mL Mg^2+ stock solution was prepared by dissolving 4.18 g of MgCl2.6H2O in 50 mL deionized water—filter sterilized using 0.2 μm cellulose-acetate filters. 2.5 mL of the sterile 10 mg/mL Ca^2+ stock and 1.25 mL of the sterile 10 mg/mL Mg^2+ stock solutions were added per 1 L of autoclaved LB or BHI media to obtain 25 mg/L Ca^2+ and 12.5 mg/L Mg^2+ ions, respectively.
(§3) General Assay Protocol: Stock bacterial cultures were streaked onto LB or BHI agar plates and grown overnight at 37° C. Fresh aliquots of cation supplemented media were inoculated with single bacterial colonies and the cultures were grown overnight at 37° C. with shaking (240 rpm). The following morning, cultures were diluted 10-fold into fresh media and grown at 37° C. until bacteria had reached mid-log phase growth (OD600˜0.4-0.6). The cultures were then diluted into fresh media to achieve final OD600 readings of 0.017. Aliquots of these diluted cultures (30 μL) were added to clear, flat-bottom 384-well polystyrene plates that were previously stamped with 0.5 μL of test compounds in 20 μL of media (yielding initial OD600=0.01 bacterial cultures). All compounds were tested in dose-response with concentration ranges during the proliferation assays from 100 μM to 46 nM (3-fold dilution series). A second set of baseline control plates were prepared analogously, but without any bacteria added, to correct for possible compound absorbance and/or precipitation. […] Plates were then read at 600 nm using a Molecular Devices SpectraMax Plus384 microplate reader. […] Results presented represent the averages of EC50 values obtained from at least four replicates.
(§4) Evaluating analogs for inhibiting the growth of E. coli and the ESKAPE bacteria. Analogs were initially tested for antibacterial efficacy against representative strains of antibiotic-sensitive E. coli and the ESKAPE bacteria. To determine compound efficacy, bacterial proliferation assays were carried out in liquid media culture supplemented with physiological concentrations of free calcium and magnesium cations. For these assays, bacterial cultures (OD600=0.01) were exposed to test compounds in 8-point, 3-fold dilution series (100 μM to 46 nM concentration range), in 384-well plates. After addition of compounds to cultures, the plates were sealed with Breathe-Easy gas permeable membranes and allowed to grow to mid-log phase (OD600˜0.4-0.6), whereupon final OD600 readings were taken to assess for bacterial growth and inhibition.

native MDH = biological target: T1, native MDH (Sus scrofa, UniProt P00346); assay: native MDH activity counter-screen in the presence of E. coli NfsB nitroreductase; format: biochemical, pig
T1 sequence (P00346 25-338): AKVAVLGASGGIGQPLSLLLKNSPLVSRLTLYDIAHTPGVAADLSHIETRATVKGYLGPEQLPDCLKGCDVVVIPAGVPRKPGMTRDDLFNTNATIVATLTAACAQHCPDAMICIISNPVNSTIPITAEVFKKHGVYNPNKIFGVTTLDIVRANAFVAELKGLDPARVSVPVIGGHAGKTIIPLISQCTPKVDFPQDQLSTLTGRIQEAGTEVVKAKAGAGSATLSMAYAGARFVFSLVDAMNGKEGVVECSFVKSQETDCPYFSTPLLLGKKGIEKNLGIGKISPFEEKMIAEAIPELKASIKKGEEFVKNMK
Description: Evaluating compounds for inhibition in the GroEL/ES-mediated dMDH refolding assay and native MDH activity counter-screen in the presence of E. coli NfsB nitroreductase. These assays were performed nearly identically to those mentioned above, but with a couple distinct modifications. […] The remainder of the assay was conducted as in our standard protocol where no NfsB nitroreductase was present. […] Results presented represent the averages of IC50 values obtained from at least four replicates in each assay.

E. coli GroEL/ES = biological target: T2, E. coli GroEL/ES (Escherichia coli, UniProt P0A6F5); assay: GroEL/ES-mediated dMDH refolding assay in the presence of E. coli NfsB nitroreductase; format: biochemical
T2 construct: made in house; host or cells: GroEL in NEB 5-alpha E. coli; GroES in E. coli BL21 (DE3)
Description: Evaluating compounds for inhibition in the GroEL/ES-mediated dMDH refolding assay and native MDH activity counter-screen in the presence of E. coli NfsB nitroreductase. These assays were performed nearly identically to those mentioned above, but with a couple distinct modifications. For both assays, 10 μg/mL of the E. coli NfsB nitroreductase enzyme (Sigma product #N9284) was added to the initial GroEL/ES-dMDH solution. For the GroEL/ES-dMDH refolding assay, after stamping with compounds, 10 μL of a 2.4 mM NADH solution was added, followed by a 10 minute incubation period at 37° C. to bioactivate the nitrofuran analogs. The remainder of the assay was conducted as in our standard protocol where no NfsB nitroreductase was present. […] For the native MDH activity counter-screen in the presence of E. coli NfsB nitroreductase, the assay was performed as described above for the GroEL/ES-dMDH refolding assay with NfsB; however, compound addition to the assay plates was conducted after the EDTA quench step, followed by a 10 minute incubation period at 37° C. to bioactivate the nitrofuran analogs. […] Results presented represent the averages of IC50 values obtained from at least four replicates in each assay.
Evaluating analogs for inhibiting GroEL/ES-mediated substrate refolding functions in the presence of the E. coli NfsB type-1 nitroreductase. […] However, our standard GroEL/ES-mediated refolding assays and native substrate reporter counter-screens were conducted without nitroreductases present.

[2] = system: Pseudomonas aeruginosa strain NCTC 10332 (ATCC #10145); assay: bacterial proliferation assay, P. aeruginosa; format: cell-based; conditions: read-out: Bacterial Proliferation EC50 P. aeruginosa
Description: as §1, §2, §3, §4

T2 sequence (P0A6F5 2-548): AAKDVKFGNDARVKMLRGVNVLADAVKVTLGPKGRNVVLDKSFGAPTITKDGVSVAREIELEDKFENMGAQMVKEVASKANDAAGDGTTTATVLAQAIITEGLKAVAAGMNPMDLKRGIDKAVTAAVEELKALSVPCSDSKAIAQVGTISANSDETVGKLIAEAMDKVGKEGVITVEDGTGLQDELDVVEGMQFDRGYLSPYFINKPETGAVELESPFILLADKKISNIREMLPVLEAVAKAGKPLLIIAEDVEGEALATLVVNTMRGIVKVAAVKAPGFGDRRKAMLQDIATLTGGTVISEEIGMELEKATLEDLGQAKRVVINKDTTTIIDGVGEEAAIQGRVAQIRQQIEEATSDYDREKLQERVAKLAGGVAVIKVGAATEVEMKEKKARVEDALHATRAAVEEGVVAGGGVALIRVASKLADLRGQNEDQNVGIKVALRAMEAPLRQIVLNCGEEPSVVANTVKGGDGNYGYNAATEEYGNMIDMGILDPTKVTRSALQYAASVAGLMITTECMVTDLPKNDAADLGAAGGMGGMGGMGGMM

Q: With `O=C(N/N=C/c1ccc([N+](=O)[O-])o1)c1ccc(NS(=O)(=O)c2ccc(Br)cc2)cc1` [Compound 27, 4-bromo-N-(4-(2-((5-nitrofuran-2-yl)methylene)hydrazine-1-carbonyl)phenyl)benzenesulfonamide] as the molecule, how does the pEC50 [1] read?
A: Its pEC50 is less than 4.00.

Q: What about the pIC50 (native MDH) of the same molecule?
A: Its pIC50 is less than 4.25.

Q: What about the pIC50 (E. coli GroEL/ES) of the same molecule?
A: The pIC50 was 5.70.

Q: What about the pEC50 [2] of the same molecule?
A: Its pEC50 is less than 4.00.

Q: How did the pEC50 [1] turn out when `O=C(N/N=C/c1ccc(O)c2ncccc12)c1ccccc1Oc1ccccc1` [Compound 10, N′-((8-hydroxyquinolin-5-yl)methylene)-2-phenoxybenzohydrazide] was run?
A: Its pEC50 is less than 4.00.

Q: And the pIC50 (native MDH; with E. coli NfsB nitroreductase, read-out: Native MDH Activity w/NfsB IC50)?
A: Its pIC50 is less than 4.25.

Q: And the pIC50 (E. coli GroEL/ES)?
A: Its pIC50 is 4.82.

Q: What about the pEC50 [2] of the same molecule?
A: The pEC50 was 4.09.
